The results in this text go back to patent publication US20220048961A1, “TRANSFERRIN RECEPTOR TARGETING PEPTIDES” (FRED HUTCHINSON CANCER RESEARCH CENTER, priority 2018, published 2022).

This experiment concerns neurotensin receptor (CRE-driven luciferase). Put plainly: CRE-luciferase reporter mice, whole-animal brain luminescence (IVIS). It is filed as in vivo. The note with it: 1.68 mg rolipram and 0.84 mg forskolin given together IP, luciferin four hours after, FIG. 31.

On to `COc1ccc(C2CNC(=O)C2)cc1OC1CCCC1` (stereo not shown) [rolipram], for which the “CRE-driven luciferase induction (brain luminescence), positive control” value was “high levels of luminescence from the animal's brain”.
